Results published in ChEMBL document CHEMBL4725294, “Centrally Active Multitarget Anti-Alzheimer Agents Derived from the Antioxidant Lead CR-6” (J Med Chem, 2020).
pIC50: −log10 of the molar value. Active and inactive are the calls of the source. No cut-off for these calls is given here.

Legend:
[1] = Stability in human plasma assessed as parent compound remaining at 10 uM measured immediately by UPLC-MS/MS analysis; type: ADME, cell-free; conditions: read-out: Stabilty
[2] = Intrinsic clearance in mouse liver microsomes assessed per mg protein at 5 uM by UPLC-MS/MS analysis; type: ADME, Microsome; conditions: read-out: CLH
[3] = Stability in rat plasma assessed as parent compound remaining at 10 uM measured immediately by UPLC-MS/MS analysis; type: ADME, cell-free; conditions: read-out: Stabilty
[4] = Drug metabolism in human liver microsomes assessed as 6-chloro-1,2,3,4-tetrahydroacridin-9-amine formation at 5 uM measured up to 60 mins by UPLC-MS/MS analysis; type: ADME, Microsome; conditions: 1 h
[5] = Acute toxicity in C57BL6/J mouse assessed as reduction in locomotor activity at 15 mg/kg, ip measured after 5 mins; type: organism-based; conditions: in vivo
[6] = Acute toxicity in C57BL6/J mouse assessed as piloerection at 15 mg/kg, ip measured after 5 mins; type: organism-based; conditions: in vivo
[7] = Half life in rat liver microsomes at 5 uM by UPLC-MS/MS analysis; type: ADME, Microsome
[8] = Half life in mouse liver microsomes at 5 uM by UPLC-MS/MS analysis; type: ADME, Microsome
Mus musculus [9] = experiment: Improvement in memory impairment in APP/PS1 double mutant-transgenic C57BL6/J mouse model assessed as […] at 10 mg/kg/day, ip for 4 weeks followed by compound washout by maze two-object recognition test; type: functional, organism-based
[10] = Stability in mouse plasma assessed as parent compound remaining at 10 uM measured immediately by UPLC-MS/MS analysis; type: ADME, cell-free; conditions: read-out: Stabilty
[11] = Drug metabolism in rat liver microsomes assessed as 6-chloro-1,2,3,4-tetrahydroacridin-9-amine formation at 5 uM measured up to 60 mins by UPLC-MS/MS analysis; type: ADME, Microsome; conditions: 1 h
[12] = Intrinsic clearance in rat liver microsomes assessed per mg protein at 5 uM by UPLC-MS/MS analysis; type: ADME, Microsome; conditions: read-out: CLH
[13] = Half life in human liver microsomes at 5 uM by UPLC-MS/MS analysis; type: ADME, Microsome
[14] = Stability in human liver microsomes assessed as parent compound remaining at 5 uM measured up to 60 mins by UPLC-MS/MS analysis; type: ADME, Microsome; conditions: read-out: Stabilty
[15] = Stability in mouse liver microsomes assessed as parent compound remaining at 5 uM measured up to 60 mins by UPLC-MS/MS analysis; type: ADME, Microsome; conditions: read-out: Stabilty
[16] = Drug metabolism in rat liver microsomes assessed as N-[8-[(6-chloro-1,2,3,4-tetrahydroacridin-9-yl)amino]octyl]-2-(8-methoxy-2-methyl-6,9-dioxo-1-oxaspiro[4.5]dec-7-en-2-yl)acetamide formation at 5 uM measured up to 60 mins by UPLC-MS/MS analysis; type: ADME, Microsome; conditions: 1 h
[17] = Stability in human plasma assessed as parent compound remaining at 10 uM measured after 60 mins by UPLC-MS/MS analysis; type: ADME, cell-free; conditions: read-out: Stabilty
[18] = Stability in rat plasma assessed as parent compound remaining at 10 uM measured after 60 mins by UPLC-MS/MS analysis; type: ADME, cell-free; conditions: read-out: Stabilty
[19] = Drug metabolism in mouse liver microsomes assessed as N-[8-[(6-chloro-1,2,3,4-tetrahydroacridin-9-yl)amino]octyl]-3-hydroxy-5-(4-methoxy-3,6-dioxo-cyclohexa-1,4-dien-1-yl)-3-methyl-pentanamide formation at 5 uM measured up to 60 mins by UPLC-MS/MS analysis; type: ADME, Microsome; conditions: 1 h
[20] = Drug metabolism in mouse liver microsomes assessed as N-[8-[(6-chloro-1,2,3,4-tetrahydroacridin-9-yl)amino]octyl]-5-(2,5-dihydroxy-4-methoxy-phenyl)-3-hydroxy-3-methyl-pentanamide formation at 5 uM measured up to 60 mins by UPLC-MS/MS analysis; type: ADME, Microsome; conditions: 1 h
[21] = Stability in rat liver microsomes assessed as parent compound remaining at 5 uM measured up to 60 mins by UPLC-MS/MS analysis; type: ADME, Microsome; conditions: read-out: Stabilty
[22] = Drug metabolism in rat liver microsomes assessed as N-[8-[(6-chloro-1,2,3,4-tetrahydroacridin-9-yl)amino]octyl]-5-(2,5-dihydroxy-4-methoxy-phenyl)-3-hydroxy-3-methyl-pentanamide formation at 5 uM measured up to 60 mins by UPLC-MS/MS analysis; type: ADME, Microsome; conditions: 1 h
Mus musculus [23] = experiment: Antialzheimer activity in APP/PS1 double mutant-transgenic C57BL6/J mouse model assessed as increase in Hmox1 gene expression at 10 mg/kg/day, ip for 4 weeks followed by compound washout and measured after 24 hrs by qPCR analysis; type: functional, organism-based
Acetylcholinesterase = Acetylcholinesterase (Homo sapiens, UniProt P22303)
Chain of Acetylcholinesterase (P22303 whole entry): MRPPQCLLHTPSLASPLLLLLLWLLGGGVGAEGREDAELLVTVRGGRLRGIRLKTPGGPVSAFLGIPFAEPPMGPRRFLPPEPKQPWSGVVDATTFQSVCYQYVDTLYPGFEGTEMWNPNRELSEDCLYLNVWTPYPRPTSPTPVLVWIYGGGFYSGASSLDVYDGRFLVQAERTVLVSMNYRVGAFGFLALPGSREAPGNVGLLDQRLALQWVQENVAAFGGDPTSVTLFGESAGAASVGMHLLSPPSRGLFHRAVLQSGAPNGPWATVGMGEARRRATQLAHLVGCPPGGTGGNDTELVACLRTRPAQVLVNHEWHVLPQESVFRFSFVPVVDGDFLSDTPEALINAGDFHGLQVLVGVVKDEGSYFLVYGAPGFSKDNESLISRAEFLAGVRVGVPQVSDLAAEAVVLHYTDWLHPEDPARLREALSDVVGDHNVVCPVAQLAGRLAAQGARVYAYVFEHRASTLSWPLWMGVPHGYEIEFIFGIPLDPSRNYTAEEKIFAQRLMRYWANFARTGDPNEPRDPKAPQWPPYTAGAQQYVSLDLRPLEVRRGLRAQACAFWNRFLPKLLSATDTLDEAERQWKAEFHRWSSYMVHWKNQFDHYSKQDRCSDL
Description: Inhibition of recombinant human AChE expressed in HEK293 cells using acetylthiocholine iodide as substrate preincubated for 15 mins followed by substrate addition by Ellman's method

[24] = Acute toxicity in C57BL6/J mouse assessed as tremor at 15 mg/kg, ip measured after 5 mins; type: organism-based; conditions: in vivo
[25] = Drug metabolism in rat liver microsomes assessed as N-[8-[(6-chloro-1,2,3,4-tetrahydroacridin-9-yl)amino]octyl]-3-hydroxy-5-(4-methoxy-3,6-dioxo-cyclohexa-1,4-dien-1-yl)-3-methyl-pentanamide formation at 5 uM measured up to 60 mins by UPLC-MS/MS analysis; type: ADME, Microsome; conditions: 1 h
[26] = Drug metabolism in human liver microsomes assessed as N-[8-[(6-chloro-1,2,3,4-tetrahydroacridin-9-yl)amino]octyl]-3-hydroxy-5-(4-methoxy-3,6-dioxo-cyclohexa-1,4-dien-1-yl)-3-methyl-pentanamide formation at 5 uM measured up to 60 mins by UPLC-MS/MS analysis; type: ADME, Microsome; conditions: 1 h
[27] = Drug metabolism in human liver microsomes assessed as N-[8-[(6-chloro-1,2,3,4-tetrahydroacridin-9-yl)amino]octyl]-5-(2,5-dihydroxy-4-methoxy-phenyl)-3-hydroxy-3-methyl-pentanamide formation at 5 uM measured up to 60 mins by UPLC-MS/MS analysis; type: ADME, Microsome; conditions: 1 h
[28] = Stability in mouse plasma assessed as parent compound remaining at 10 uM measured after 180 mins by UPLC-MS/MS analysis; type: ADME, cell-free; conditions: read-out: Stabilty
[29] = Stability in human plasma assessed as parent compound remaining at 10 uM measured after 180 mins by UPLC-MS/MS analysis; type: ADME, cell-free; conditions: read-out: Stabilty
Mus musculus [30] = experiment: Antialzheimer activity in APP/PS1 double mutant-transgenic C57BL6/J mouse model assessed as reduction in Bace1 expression at 10 mg/kg/day, ip for 4 weeks followed by compound washout and measured after 24 hrs by Western blot analysis; type: functional, organism-based
Mus musculus [31] = experiment: Antialzheimer activity in APP/PS1 double mutant-transgenic C57BL6/J mouse model assessed as increase in Adam10 gene expression at 10 mg/kg/day, ip for 4 weeks followed by compound washout and measured after 24 hrs by qPCR analysis; type: functional, organism-based
[32] = Stability in rat plasma assessed as parent compound remaining at 10 uM measured after 180 mins by UPLC-MS/MS analysis; type: ADME, cell-free; conditions: read-out: Stabilty
[33] = Stability in mouse plasma assessed as parent compound remaining at 10 uM measured after 360 mins by UPLC-MS/MS analysis; type: ADME, cell-free; conditions: read-out: Stabilty
Mus musculus [34] = experiment: Antialzheimer activity in APP/PS1 double mutant-transgenic C57BL6/J mouse model assessed as increase in Adam10 expression at 10 mg/kg/day, ip for 4 weeks followed by compound washout and measured after 24 hrs by Western blot analysis; type: functional, organism-based
Beta-secretase 1 = Beta-secretase 1 (Homo sapiens, UniProt P56817); experiment: Inhibition human BACE1 expressed in baculovirus expression system at 5 uM using Panvera peptide as substrate measured after 60 mins by fluorescence assay relative to control; conditions: 1 h
Chain of Beta-secretase 1 (P56817 whole entry): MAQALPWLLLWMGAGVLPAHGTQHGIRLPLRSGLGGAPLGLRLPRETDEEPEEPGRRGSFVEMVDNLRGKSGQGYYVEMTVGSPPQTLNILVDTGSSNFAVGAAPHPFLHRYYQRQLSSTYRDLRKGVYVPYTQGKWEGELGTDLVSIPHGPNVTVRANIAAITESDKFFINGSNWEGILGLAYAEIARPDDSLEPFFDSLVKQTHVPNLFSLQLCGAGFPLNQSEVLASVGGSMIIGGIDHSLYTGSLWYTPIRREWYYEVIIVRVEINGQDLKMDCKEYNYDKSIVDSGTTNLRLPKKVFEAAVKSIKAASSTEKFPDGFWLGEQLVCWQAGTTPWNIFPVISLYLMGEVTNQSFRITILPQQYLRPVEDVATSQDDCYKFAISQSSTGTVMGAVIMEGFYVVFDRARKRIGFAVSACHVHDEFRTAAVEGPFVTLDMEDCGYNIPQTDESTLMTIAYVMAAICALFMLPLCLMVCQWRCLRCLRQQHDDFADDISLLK

SMILES: COc1cc2c(cc1O)CCC(C)(CC(=O)NCCCCCCCCNc1c3c(nc4cc(Cl)ccc14)CCCC3)O2 (stereo unspecified)
- remaining at 0 min, 10 µM [1]: 100%
- microsomal CLint at 5 µM [2]: 13.7 µL/min/mg
- remaining at 0 min, 10 µM [3]: 100%
- Drug metabolism [4]: Metabolite_Detected
- Activity [5]: Toxic
- Activity [6]: Toxic
- half-life at 5 µM [7]: 42.4 min
- half-life at 5 µM [8]: 50.5 min
- Activity (Mus musculus [9]): inactive
- remaining at 0 min, 10 µM [10]: 100%
- Drug metabolism [11]: Metabolite_Detected
- microsomal CLint at 5 µM [12]: 16.3 µL/min/mg
- half-life at 5 µM [13]: 12.6 min
- remaining at 1 h, 5 µM [14]: 3.6%
- remaining at 1 h, 5 µM [15]: 55.2%
- Drug metabolism [16]: Metabolite_Detected
- remaining at 1 h, 10 µM [17]: 100%
- remaining at 1 h, 10 µM [18]: 100%
- Drug metabolism [19]: Metabolite_Detected
- Drug metabolism [20]: Metabolite_Detected
- remaining at 1 h, 5 µM [21]: 36.5%
- Drug metabolism [22]: Metabolite_Detected
- Activity (Mus musculus [23]): Active
- pIC50 (Acetylcholinesterase): 8.43
- Activity [24]: Toxic
- Drug metabolism [25]: Metabolite_Detected
- Drug metabolism [26]: Metabolite_Detected
- Drug metabolism [27]: Metabolite_Detected
- remaining at 3 h, 10 µM [28]: 100%
- remaining at 3 h, 10 µM [29]: 100%
- Activity (Mus musculus [30]): inactive
- Activity (Mus musculus [31]): inactive
- remaining at 3 h, 10 µM [32]: 100%
- remaining at 6 h, 10 µM [33]: 100%
- Activity (Mus musculus [34]): inactive
- inhibition at 5 µM (Beta-secretase 1): 19%
